From PMC2913105 (British Journal of Pharmacology, 2010)

How the values were obtained:
P2Y receptors = assay: Ca2+ signals; assay type: cell-based, rat; details: for Δ[Ca2+]i Peak: peak increase in [Ca2+]i, populations of cultured ASMC; for pEC50 Peak (with Ca2+): peak response in HBS; for pEC50 Ca2+ entry: sustained Ca2+ entry signal; for Δ[Ca2+]i Sustained: sustained increase measured between 250 and 300 s, cultured ASMC; for pEC50 Peak (Ca2+-free): peak response in Ca2+-free HBS
Gi/o = assay type: cell-based, rat
[1] = ref Abbracchio et al., 2006; cited from earlier work
phospholipase C = assay type: cell-based, rat
P2X1 and P2X3 receptors = details: not shown
P2Y14 receptors = target: T1, P2Y14 receptors (Rattus norvegicus, UniProt O35881); assay type: cell-based; details: agonist 10 µM; not shown
T1 sequence (O35881 1-305): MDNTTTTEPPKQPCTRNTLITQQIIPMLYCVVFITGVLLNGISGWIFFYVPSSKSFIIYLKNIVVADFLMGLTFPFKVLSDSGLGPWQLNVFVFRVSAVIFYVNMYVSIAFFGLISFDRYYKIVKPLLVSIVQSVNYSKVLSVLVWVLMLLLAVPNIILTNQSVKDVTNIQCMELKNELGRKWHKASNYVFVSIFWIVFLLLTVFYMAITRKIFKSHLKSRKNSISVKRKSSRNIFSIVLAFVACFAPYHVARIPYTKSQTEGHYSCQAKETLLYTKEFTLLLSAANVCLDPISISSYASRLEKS

Molecule: CSc1nc(N)c2ncn([C@@H]3O[C@H](COP(=O)(O)OP(=O)(O)O)[C@@H](O)[C@H]3O)c2n1 [2-MeSADP, 2-methylthio-adenosine-5′-diphosphate]
- Δ[Ca2+]i Peak (P2Y receptors): 122 ± 30 nM
- pEC50 Peak (with Ca2+) (P2Y receptors): 7.23 ± 0.53
- pEC50 Ca2+ entry (P2Y receptors): 5.58 ± 0.16
- Δ[Ca2+]i Sustained (P2Y receptors): 18 ± 4 nM

Molecule: O=c1ccn([C@@H]2O[C@H](COP(=O)(O)OP(=O)(O)OP(=O)(O)O)[C@@H](O)[C@H]2O)c(=S)[nH]1 [2-thio-UTP, 2-thio-uridine-5′-triphosphate]
- Δ[Ca2+]i Peak (P2Y receptors): 327 ± 42 nM
- pEC50 Peak (with Ca2+) (P2Y receptors): 5.89 ± 0.29
- Δ[Ca2+]i Sustained (P2Y receptors): 88 ± 26 nM

Molecule: N[C@@H]1[C@H](O)[C@@H](COP(=O)(O)OP(=O)(O)OP(=O)(O)O)O[C@H]1n1ccc(=O)[nH]c1=O [2′-amino-UTP, 2′-amino-2′-deoxyuridine-5′-triphosphate]
- Δ[Ca2+]i Peak (P2Y receptors): 301 ± 34 nM
- pEC50 Peak (with Ca2+) (P2Y receptors): 5.58 ± 0.37
- pEC50 Ca2+ entry (P2Y receptors): 5.40 ± 0.23
- Δ[Ca2+]i Sustained (P2Y receptors): 84 ± 36 nM

Molecule: [N-]=[N+]=N[C@@H]1[C@H](O)[C@@H](COP(=O)(O)OP(=O)(O)OP(=O)(O)O)O[C@H]1n1ccc(=O)[nH]c1=O [2′-azido-UTP, 2′-azido-2′-deoxyuridine-5′-triphosphate]
- Δ[Ca2+]i Peak (P2Y receptors): 142 ± 29 nM
- pEC50 Peak (with Ca2+) (P2Y receptors): 4.67 ± 0.32
- pEC50 Ca2+ entry (P2Y receptors): 4.67 ± 0.06
- Δ[Ca2+]i Sustained (P2Y receptors): 55 ± 20 nM

Molecule: Nc1ncnc2c1ncn2[C@@H]1O[C@H](COP(=O)(O)OP(=O)(O)OP(=O)(O)O)[C@@H](O)[C@H]1O [ATP]
- pEC50 of ATP, peak Ca2+ signal, after Pertussis toxin (Gi/o): 5.30 ± 0.08
- pEC50 of ATP, peak Ca2+ signal, without Pertussis toxin (Gi/o; paired control): 5.63 ± 0.09
- Δ[Ca2+]i Peak (P2Y receptors): 248 ± 48 nM
- pEC50 Peak (Ca2+-free) (P2Y receptors): 5.95 ± 0.10
- pEC50 Peak (with Ca2+) (P2Y receptors): 5.83 ± 0.03
- pEC50 Ca2+ entry (P2Y receptors): 5.01 ± 0.13
- Δ[Ca2+]i Sustained (P2Y receptors): 64 ± 20 nM

Molecule: CSc1nc(N)c2ncn([C@H]3[C@H](O)[C@H](O)[C@]4(COP(=O)(O)OP(=O)(O)O)C[C@H]34)c2n1 [MRS2365, (N)-methanocarba-2-MeSADP]
- Δ[Ca2+]i Peak (P2Y receptors): 154 ± 5 nM
- pEC50 Peak (Ca2+-free) (P2Y receptors): 8.56 ± 0.06
- pEC50 Peak (with Ca2+) (P2Y receptors): 8.68 ± 0.16
- pEC50 Ca2+ entry (P2Y receptors): 8.11 ± 0.32
- Δ[Ca2+]i Sustained (P2Y receptors): 18 ± 7 nM

Molecule: S=C=Nc1cccc(NC(=S)NCCCCNC(=S)Nc2cccc(N=C=S)c2)c1 [MRS2578, N,N″-1,4-butanediylbis [N′-(3-isothiocyanatophenyl)thio] urea]
- Solubility in aqueous solution [1]: sparingly soluble
- Stability in aqueous solution [1]: unstable

Molecule: COc1ccc2c(c1)CC[C@@H]1[C@@H]2CC[C@]2(C)[C@@H](NCCCCCCN3C(=O)C=CC3=O)CC[C@@H]12 [U73122, 1-[6-[[(17β)-3-methoxyestra-1,3,5 (10)-trien-17-yl]amino]hexyl]-1H-pyrrole-2,5-dione]
- pIC50 for inhibition of Ca2+ signals evoked by ATP (phospholipase C; ATP 100 µM, inhibitor added 5 min before and during stimulation): 5.78 ± 0.07
- Effect on Ca2+ responses to UTP and UDP (phospholipase C; not shown): abolished

Molecule: COc1ccc2c(c1)CC[C@@H]1[C@@H]2CC[C@]2(C)[C@@H](NCCCCCCN3C(=O)CCC3=O)CC[C@@H]12 [U73343, 1-[6-[((17β)-3-methoxyestra-1,3,5 (10)-trien-17-yl)amino]hexyl]-2,5-pyrrolidinedione]
- Effect on Ca2+ signals evoked by ATP (phospholipase C; ATP 100 µM, inactive analogue of U73122): no effect

Molecule: O=c1ccn([C@@H]2O[C@H](COP(=O)(O)OP(=O)(O)O)[C@@H](O)[C@H]2O)c(=O)[nH]1 [UDP]
- Δ[Ca2+]i Peak (P2Y receptors): 94 ± 20 nM
- pEC50 Peak (Ca2+-free) (P2Y receptors): 6.16 ± 0.43
- pEC50 Peak (with Ca2+) (P2Y receptors): 6.45 ± 0.45
- pEC50 Ca2+ entry (P2Y receptors): 6.83 ± 0.35
- Δ[Ca2+]i Sustained (P2Y receptors): 25 ± 6 nM

Molecule: O=c1ccn([C@@H]2O[C@H](COP(=O)(O)OP(=O)(O)OP(=O)(O)O)[C@@H](O)[C@H]2O)c(=O)[nH]1 [UTP]
- Δ[Ca2+]i Peak (P2Y receptors): 254 ± 47 nM
- pEC50 Peak (Ca2+-free) (P2Y receptors): 5.39 ± 0.15
- pEC50 Peak (with Ca2+) (P2Y receptors): 5.23 ± 0.22
- pEC50 Ca2+ entry (P2Y receptors): 4.64 ± 0.32
- Δ[Ca2+]i Sustained (P2Y receptors): 67 ± 5 nM

Molecule: Nc1ncnc2c1ncn2C1OC(COP(=O)(O)CP(=O)(O)OP(=O)(O)O)C(O)C1O (stereo not drawn) [αβ-meATP, αβ-methylene-adenosine-5′-triphosphate]
- Ca2+ response in cultured ASMC (P2X1 and P2X3 receptors): no response

Molecule: Pertussis toxin
- Effect on responses to UDP (Gi/o; Pertussis toxin 100 ng·mL−1, 24 h): unaffected

Molecule: diphosphoric acid 1-α-D-glucopyranosyl ester 2-[(4′-methylthio)uridin-5″-yl] ester [MRS2690]
- Ca2+ signals evoked in cultured ASMC (P2Y14 receptors): Neither MRS2690 (10 µM) nor UDP-glucose (10 µM) evoked Ca^2+ signals
